According to patent US20210267948A1, “TREATMENT OF CANCER” (CITY OF HOPE, priority 2017, published 2021):

Key:
[1] = GLP toxicity study in rats; assay type: in vivo; conditions: for Toxicity: Sprague-Dawley rats, top dose 125 mg/kg
From the text: Toxicity studies in rats and dogs at doses equivalent to 10× that dose have not shown toxicity at 10 or 21 days.

HCC1937 = assay: Microarray gene ontology enrichment, HCC1937; assay type: cell-based, human; conditions: genes downregulated, HCC1937-COH29 vs HCC1937
Method: FDR values were calculated using the method of Benjamini and Hochberg (28) from the distribution of ANOVA with Linear Contrastp-values. Gene ontology (GO) (29) enrichment analysis was performed within PARTEK® GENOMICS SUITE™, and GO categories were defined significant with a Fisher Exact test p-value<0.05.
To identify the mechanism through which COH29 preferentially lyses BRCA1-mutant human cancer cells, genome-wide microarray analysis was performed using the AFFYMETRIX® GENECHIP® microarray platform to identify the gene expression profiles and pathways affected by COH29 treatment. The RNA expression profile of COH29 treated HCC1937 breast cancer cells lacking BRCA1 was compared with that of COH29 treated HCC1937+BRCA1 cells. […] For example, DNA ligation involved in DNA repair is more strongly enriched in HCC1937 cells which may relate to the phenotypic effect.

MCF-7 p53−/− = assay: DNA damage checkpoint Western blot, MCF-7 p53-/-; assay type: cell-based, human
Method: FIG. 6. COH29 treatment activates DNA damage checkpoint. The effect of COH29 treatment on DNA damage checkpoint proteins in human breast cancer cells expressing wt p53 (MCF-7) or defective for p53 (MCF-7p53−/−), and in triple-negative breast cancer cells (MDA-MB-468) assessed by Western Blot.
For subcellular fractionation, cells were trypsinized and washed with cold PBS solution twice. After centrifugation at 1,200 g for 5 min, cells were incubated in buffer (50 mM HEPES, pH 7.5, 150 mM NaCl, 1 mM EDTA) containing 0.2% NONIDET™ P-40 (NP-40), supplemented with protease inhibitors (5 μg/ml each of pepstatin, leupeptin, and aprotinin) and phosphatase inhibitors on ice for 5 min. Following centrifugation at 1,000 g for 5 min, the supernatant was collected (i.e., cytoplasmic fraction) and pellets were washed with the same buffer twice. The washed samples were extracted for 40 min on ice with fractionation buffer containing 0.5% NP-40 for nuclear fraction. All the samples were sonicated and clarified by centrifugation at 16,000 g for 15 min. Protein concentrations of all fractions were determined with Bio-Rad Protein Assay (Bio-Rad Laboratories, Hercules, Calif.). Immunoblotting was performed as described previously (21,22). […] The immunoblots were visualized on film with the West-Q chemi-luminescence kit (GenDEPOT, Barker, Tex.).

HCC1937+BRCA1 = assay: Cytotoxicity assay, HCC1937+BRCA1; assay type: cell-based, human; conditions: 10 μM, 72 h
Method: All cell lines were acquired from the American Type Culture Collection (Manassas, Va., USA). Cells were maintained in RPMI 1640 medium (Mediatech) with 10% fetal bovine serum, 2 mM glutamine, and 100 U of penicillin and 100 μg of streptomycin per ml of medium (Sigma) at 37° C. in 5% CO2. To isolate HCC1937+BRCA1 cells, parental HCC1937 cells were transfected with pcDNA3.1 plasmid expressing full-length BRCA1 cDNA. Stable transfectant clones were selected and used for drug sensitivity assays. For stable transfection, cells at 30-40% confluence were incubated overnight with […] of plasmid DNA, using FUGENE® 6 transfectin reagent (Roche Molecular Biochemical, Monza, Italy) according to the manufacturer's instructions. Cells were then selected in puromycin (1 μg/ml) (Invitrogen Life Technologies, La Jolla, Calif., USA). After 20 to 30 days, viable puromycin-resistant colonies from HCC1937 transfections were expanded and screened. The clones that stably expressed puromycin and retained growth potential were assayed for BRCA1 expression by Western blot analysis. The restoration of BRCA1 expression in the puromycin-resistant cDNA/transfectant cells was evaluated by Western blot analysis.
The MTT cytotoxicity assay was performed by incubating with MTT and monitoring the MTT formazan formed by viable cells with a microplate reader at a wavelength of 560 nm; the survival ratio was determined using the formula: (Atest−Ablank)/(Acontrol−Ablank)×100%. The cytotoxicity was determined in 96-well plates using the semiautomatic fluorescence-based Digital Imaging Microscopy System (DIMSCAN). DIMSCAN uses digital imaging microscopy to quantify viable cells, which selectively accumulate FDA (fluorescein diacetate; Alfa Aesar, Ward Hill, Mass.). DIMSCAN is capable of measuring cytotoxicity over a 4 log dynamic range by quantifying total fluorescence per well (which is proportional to the number of viable cells) after elimination of the background fluorescence by digital thresholding and eosin Y (Mallinckrodt Baker, Center Valley, Pa.) quenching. […]

For `O=C(Nc1nc(-c2ccc(O)c(O)c2)c(-c2ccccc2)s1)c1ccc(O)c(O)c1` [COH29, N-(4-(3,4-dihydroxyphenyl)-5-phenylthiazol-2-yl)-3,4-dihydroxybenzamide], the Toxicity ([1]; 10 days) was “none”, the Toxicity ([1]; 21 days) was “none” and the NOAEL ([1]; Sprague-Dawley, rat, in vivo) was 250 mg/kg/day. The “Genes (n): DNA ligation involved in DNA repair” value (HCC1937) was 3, the “Genes (n): DNA repair” value (HCC1937) was 17 and the “Genes (n): DSB repair” value (HCC1937) was 7. For the same molecule, the “Genes (n): DSB repair via HR” value (HCC1937) was 5, the “Genes (n): DSB repair via NHEJ” value (HCC1937) was 2 and the “DNA damage checkpoint proteins (ATM, CHK1, CHK2)” value (MCF-7 p53−/−) was “similarly modified”. For the same molecule, the γ-H2AX level (MCF-7 p53−/−) was “increase”, the cells survived (HCC1937+BRCA1; HCC1937+BRCA1 transfected with BRCA1 siRNA) was 53% and the cells survived (HCC1937+BRCA1; HCC1937+BRCA1 transfected with control siRNA) was 72%.
